The record followed here is ChEMBL document CHEMBL3593192, “Synthesis and biological evaluation of novel histone deacetylases inhibitors with nitric oxide releasing activity” (Bioorg Med Chem, 2015).

Each structure is given as a SMILES string. pIC50: −log10 of the molar value. Activity calls are given as the source filed them. The rule behind the calls is not given here.

Test [1] can be described thus: cells. It counts as functional, cell-based. Conditions: Homo sapiens, KG-1, 48 h.
Description: Cytotoxicity against human KG1 cells assessed as inhibition of cell proliferation after 48 hrs by MTT assay
Another test has as its system B16. Put plainly: cells. The conditions noted are these: Mus musculus, B16, 48 h. The format is functional, cell-based.
Test [2] is described as follows: cells. It counts as functional, cell-based, ES2. Conditions: Homo sapiens, ES-2, 48 h.
Description: Cytotoxicity against human ES2 cells assessed as inhibition of cell proliferation after 48 hrs by MTT assay
The next test concerns U-937. Put plainly: Cytotoxicity against human U937 cells assessed as inhibition of cell proliferation after 48 hrs by MTT assay. The format is functional, cell-based. The conditions noted are these: U-937, 48 h.
The target in test [3] is Histone deacetylase (HDAC1 and HDAC2) (Homo sapiens, UniProt Q13547+Q92769). As to the kind of experiment: Inhibition of HDAC1/2 in human HeLa cells using Boc-Lys (acetyl)-AMC as substrate preincubated for 30 mins followed by substrate addition measured after 30 mins by fluorescence assay. The format is cell-based.
Test [4] concerns HCT-116. As to the kind of experiment: cells. It counts as functional, cell-based. Conditions: Homo sapiens, HCT-116, 48 h.
Another test concerns HEL. Put plainly: cells. It counts as functional, cell-based. Conditions: Homo sapiens, 48 h.
The subject of test [5] is HCT-116. Put plainly: Induction of nitric oxide production in human HCT116 cells at 100 uM after 5 hrs by Griess assay. It counts as functional, cell-based. In general terms: Nitrite, measured by Griess reagent, commonly stands in for NO production.
The test system of the next test is HeLa. As to the kind of experiment: cells. The format is functional, cell-based. The conditions noted are these: Homo sapiens, 48 h.
Another test concerns PC-3. As to the kind of experiment: cells. It counts as functional, cell-based. Conditions: Homo sapiens, PC-3, 48 h.
For test [6], the system named is HCT-116. Put plainly: Cytotoxicity against human HCT116 cells assessed as inhibition of cell proliferation after 48 hrs by MTT assay in presence of SAHA. It counts as functional, cell-based. Conditions: HCT-116, 48 h. A general note: Tetrazolium dyes change colour on reduction, which living cells bring about.
Test [7] deals with HCT-116. Put plainly: Cytotoxicity against nitric oxide scavenger hemoglobin-treated human HCT116 cells assessed as inhibition of cell proliferation at 2 uM after 24 hrs by MTT assay. The format is functional, cell-based.

Description for B16: Cytotoxicity against mouse B16 cells assessed as inhibition of cell proliferation after 48 hrs by MTT assay
Description for HeLa: Cytotoxicity against human HeLa cells assessed as inhibition of cell proliferation after 48 hrs by MTT assay
Description for PC-3: Cytotoxicity against human PC3 cells assessed as inhibition of cell proliferation after 48 hrs by MTT assay

The term pIC50 denotes the IC50 on a negative log10 scale, so that one unit is a factor of ten. Usually IC50 stands for the point on the concentration scale where inhibition reaches its midpoint. The low end stands for greater potency in that assay, the high end for weaker potency in that assay. For the molecule `O=C(CCCCCCCOC(=O)c1ccc2c(c1)no[n+]2[O-])NO`, the negative-log IC50 (pIC50) is 5.28 in the test “cells [1]”; 5.10 with B16; 5.03 in “cells [2]”; 4.93 in the test on U-937; 5.64 with HCT-116 [4]; 5.82 in the test on HEL. Also, the pIC50 in the test on HeLa was 5.27; with PC-3, 5.86. This molecule had a concentration for half-maximal inhibition (IC50) in test [3] of 0.1804 µM. In the test with HCT-116 [5], the result was Active.
Turning to `O=C(O)c1cccc2c1no[n+]2[O-]`, the values for the pIC50 with HCT-116 [6] and in the test with HCT-116 [4] were 5.07 and 4.19, respectively. Further, the half-maximal inhibitory concentration (IC50) in [3] is greater than 1000 µM. The outcome in the test on HCT-116 [5] was Active.
For `O=C(CCCCOC(=O)c1ccc2c(c1)no[n+]2[O-])NO`, the pIC50 in the test “cells [1]” was 5.09; in the test with B16, 4.62; in the test “cells [2]” it was 4.60; in the test with U-937, 4.70; in the test on HCT-116 [4] it was 5.58; in the test with HEL it was 5.92. Further, the figures for the pIC50 in the test with HeLa and in the test on PC-3 were 4.80 and 4.90, respectively. Further, the IC50 in test [3] amounted to 2.207 µM.
`O=C(CCCOC(=O)c1cccc2c1no[n+]2[O-])NO`: the pIC50 was 4.91 in the test “cells [1]”; less than 4.10 in the test on B16; 4.13 in the test “cells [2]”; 4.27 in the test with U-937; 4.79 in the test on HCT-116 [4]; 5.18 with HEL. Moreover, the figures for the pIC50 in the test with HeLa and with PC-3 were 4.14 and 4.87, respectively. The same molecule yielded an IC50 in [3] of 6.8072 µM.
Regarding `O=C(CCCOC(=O)c1ccc2c(c1)no[n+]2[O-])NO`, the pIC50 in “cells [1]” is 5.40; in the test with B16, 4.65; in “cells [2]” it was 4.57; with U-937 it was 4.88; in the test with HCT-116 [4] it was 5.69; with HEL, 5.68. Besides, the pIC50 in the test on HeLa is 4.77; in the test with PC-3, 5.18. Further, the IC50 in [3] was found to be 5.5697 µM.
In the case of `O=C(CCCCCCOC(=O)c1ccc2c(c1)no[n+]2[O-])NO`, the negative logarithm of the IC50 (pIC50) in “cells [1]” is 6.43; with B16 it was 5.30; in the test “cells [2]” it was 5.29; with U-937, 4.91; in the test with HCT-116 [4], 5.96; in the test with HEL, 5.90. The negative-log IC50 (pIC50) was 5.04 in the test on HeLa and 6.02 in the test with PC-3. The molecule further had an IC50 in [3] of 0.0184 µM. Also, the inhibition result with HCT-116 [7] was “inactive”. The result in the test with HCT-116 [5] was Active.
On to `O=C(CCCCCCOC(=O)c1cccc2c1no[n+]2[O-])NO`, for which the negative-log IC50 (pIC50) in “cells [1]” was 5.53; in the test with B16, 4.74; in “cells [2]”, 4.67; with U-937 it was 4.46; in the test with HCT-116 [4], 5.96; with HEL, 5.43. Further, the negative-log IC50 (pIC50) in the test with HeLa is 4.57; in the test on PC-3, 5.03. In [3], this molecule had a concentration for half-maximal inhibition (IC50) of 0.0128 µM. The inhibition result in the test with HCT-116 [7] was “inactive”. Further, the result in the test with HCT-116 [5] was Active.
As for `O=C(O)c1ccc2c(c1)no[n+]2[O-]`, the pIC50 with HCT-116 [6] is 4.94; in the test on HCT-116 [4], 4.25. The half-inhibitory concentration (IC50) in [3] is greater than 1000 µM. For the same molecule, the result in the test on HCT-116 [5] was Active.
`O=C(CCCCOC(=O)c1cccc2c1no[n+]2[O-])NO`: the pIC50 in “cells [1]” was 5.17; in the test on B16 it was 4.52; in the test “cells [2]”, 4.35; in the test on U-937 it was 4.95; in the test with HCT-116 [4], 5.56; with HEL, 5.50. Besides, the pIC50 in the test on HeLa is 4.69; in the test with PC-3, 4.85. In [3], the IC50 amounted to 0.2576 µM.
As to `O=C(CCCCCCC(=O)Nc1ccccc1)NO` [VORINOSTAT], the negative-log IC50 (pIC50) in the test on U-937 was 5.32.
Turning to `O=C(CCCCCCCOC(=O)c1cccc2c1no[n+]2[O-])NO`, the negative logarithm of the IC50 (pIC50) is 6.28 in “cells [1]”; less than 4.10 with B16; less than 4.10 in the test “cells [2]”; less than 4.10 in the test with U-937; less than 4.10 in the test with HCT-116 [4]; 4.92 in the test with HEL. The negative-log IC50 (pIC50) in the test on HeLa was 4.47; in the test on PC-3 it was less than 4.10. The molecule also yielded a half-maximal inhibitory concentration (IC50) in test [3] of 0.1373 µM.
Consider `O=C(CCCCCOC(=O)c1ccc2c(c1)no[n+]2[O-])NO`, for which the negative logarithm of the IC50 (pIC50) was 5.43 in “cells [1]”; 4.52 with B16; 4.69 in “cells [2]”; 4.48 in the test with U-937; 5.47 in the test with HCT-116 [4]; 4.94 with HEL. The pIC50 with HeLa was 4.76; in the test with PC-3 it was 4.91. Also, in test [3], the IC50 was 0.437 µM. Also, the result with HCT-116 [5] was Active.
Consider `O=C(CCCCCOC(=O)c1cccc2c1no[n+]2[O-])NO`, for which the pIC50 is 4.91 in “cells [1]”; 4.55 in the test on B16; 4.18 in “cells [2]”; 4.67 in the test with U-937; 5.55 in the test on HCT-116 [4]; 5.43 in the test on HEL. For the same molecule, the negative logarithm of the IC50 (pIC50) in the test on HeLa is 4.38; in the test with PC-3, 4.77. Further, the IC50 in test [3] came to 0.017 µM. Moreover, the outcome in the test on HCT-116 [5] was Active.
